From the supplement of paper PMC10307832

Assays:
Test in all cases: relative viability (nuclei count vs DMSO), 5 days (fraction); higher = more cells survive
Daporinad + Luminespib = compound: O=C(/C=C/c1cccnc1)NCCCCC1CCN(C(=O)c2ccccc2)CC1 [Daporinad] + CCNC(=O)c1noc(-c2cc(C(C)C)c(O)cc2O)c1-c1ccc(CN2CCOCC2)cc1 [Luminespib] (partner 0.01 µM)
Summary of the method: (§1)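 Relative viability equals treated-well nuclei counts divided by vehicle-well nuclei counts. Counts came from 4× images of lung cancer cell lines grown in 1536-well plates for 5 days after pin-tool dosing on the day after seeding. Dosing used one drug alone or a fixed anchor-drug dose plus five library-drug doses (not always all listed) in √10 steps, and values are medians of duplicate plates.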

R406 + Bortezomib = compound: COc1cc(Nc2ncc(F)c(Nc3ccc4c(n3)NC(=O)C(C)(C)O4)n2)cc(OC)c1OC [R406] + CC(C)C[C@H](NC(=O)[C@H](Cc1ccccc1)NC(=O)c1cnccn1)B(O)O [Bortezomib] (partner 0.002 µM)
Summary of the method: as §1

Daporinad + Dasatinib = compound: O=C(/C=C/c1cccnc1)NCCCCC1CCN(C(=O)c2ccccc2)CC1 [Daporinad] + Cc1nc(Nc2ncc(C(=O)Nc3c(C)cccc3Cl)s2)cc(N2CCN(CCO)CC2)n1 [Dasatinib] (partner 0.075 µM)
Summary of the method: as §1

R406 + Decitabine = compound: COc1cc(Nc2ncc(F)c(Nc3ccc4c(n3)NC(=O)C(C)(C)O4)n2)cc(OC)c1OC [R406] + Nc1ncn([C@H]2C[C@H](O)[C@@H](CO)O2)c(=O)n1 [Decitabine] (partner 2 µM)
Summary of the method: as §1

Cell Line	relative viability (Daporinad + Luminespib; first compound 0.0005 µM)	relative viability (Daporinad + Luminespib; first compound 0.001581 µM)	relative viability (Daporinad + Luminespib; first compound 0.005 µM)	relative viability (Daporinad + Luminespib; first compound 0.01581 µM)	relative viability (R406 + Bortezomib; first compound 0.08 µM)	relative viability (R406 + Bortezomib; first compound 0.253 µM)	relative viability (R406 + Bortezomib; first compound 0.8 µM)	relative viability (R406 + Bortezomib; first compound 2.53 µM)	relative viability (R406 + Bortezomib; first compound 8 µM)	relative viability (Daporinad + Dasatinib; first compound 0.0005 µM)	relative viability (Daporinad + Dasatinib; first compound 0.001581 µM)	relative viability (Daporinad + Dasatinib; first compound 0.005 µM)	relative viability (Daporinad + Dasatinib; first compound 0.01581 µM)	relative viability (R406 + Decitabine; first compound 0.08 µM)	relative viability (R406 + Decitabine; first compound 0.253 µM)	relative viability (R406 + Decitabine; first compound 0.8 µM)	relative viability (R406 + Decitabine; first compound 2.53 µM)	relative viability (R406 + Decitabine; first compound 8 µM)
201T	1.04	1.02	1.12	1.11	1.11	1.09	1.11	1.04	0.993	0.52	0.555	0.595	0.6	0.838	0.847	0.861	0.839	0.586
A549	–	–	–	–	–	–	–	–	–	–	–	–	–	0.22	0.261	0.257	0.258	0.311
A-427	0.959	0.953	0.742	0.671	0.948	1.01	1.03	0.526	0.74	0.613	0.841	0.618	0.338	0.583	0.626	0.717	0.514	0.571
ABC-1	0.524	0.583	0.527	0.498	0.399	0.321	0.317	0.251	0.265	0.481	0.595	0.511	0.42	1.02	1.21	1.03	0.793	0.736
BEN	0.356	0.559	0.456	0.437	0.685	1.03	1.02	0.88	0.553	0.316	0.251	0.318	0.414	0.679	0.793	0.726	0.683	0.441
CAL-12T	0.17	0.41	0.545	0.193	0.927	1.18	1.11	0.423	0.218	0.342	0.409	0.37	0.134	–	–	–	–	–
COR-L23	0.615	0.696	0.734	0.199	0.942	1.14	1.06	0.907	0.523	0.541	0.575	0.38	0.183	0.397	0.447	0.512	0.339	0.326
COR-L 105	0.807	0.805	0.82	0.738	0.68	0.84	1.06	0.315	0.246	0.317	0.376	0.346	0.416	0.593	0.561	0.758	0.563	0.475
Calu-6	–	–	–	–	0.997	1.06	1.04	0.631	0.557	–	–	–	–	–	–	–	–	–
ChaGo-K-1	0.529	0.508	0.425	0.414	1.02	1.06	1.11	0.823	0.347	0.672	0.5	0.476	0.278	0.491	0.546	0.557	0.504	0.506
EBC-1	–	–	–	–	0.606	0.616	0.672	0.44	0.231	–	–	–	–	–	–	–	–	–
EKVX	0.889	0.933	0.839	0.922	1.01	1.17	1.45	0.994	0.6	0.47	0.535	0.619	0.838	0.341	0.365	0.316	0.336	0.354
EMC-BAC-2	1.19	1.22	1.25	0.331	1.04	1.13	1.12	1.04	0.844	0.359	0.362	0.387	0.319	0.942	1.03	1.06	0.974	0.855
EPLC-272H	0.237	0.433	0.388	0.393	0.813	0.983	0.984	0.51	0.495	0.393	0.482	0.458	0.473	0.354	0.391	0.436	0.26	0.21
H3255	0.832	0.995	0.929	1.1	0.852	0.912	0.686	0.865	0.457	0.391	0.387	0.491	0.443	0.656	0.589	0.714	0.571	0.458
HARA	0.761	0.621	0.837	0.175	1.07	1.21	1.15	0.991	0.389	0.3	0.285	0.284	0.339	0.414	0.597	0.586	0.584	0.178
HCC-15	0.309	0.446	0.372	0.329	1.02	1.16	1.25	–	0.962	0.62	0.707	0.686	0.837	0.636	0.788	0.687	0.603	0.389
HCC-44	1.07	1.12	0.942	1.28	0.927	1.07	1	0.312	0.603	–	–	–	–	0.924	1.04	0.856	1	1.05
HCC-78	–	–	–	–	0.491	0.541	0.51	0.306	0.241	0.363	–	0.328	0.379	0.566	0.785	0.702	0.749	0.61
HCC-366	–	–	–	–	1.08	1.02	1.3	–	0.428	0.697	0.738	0.646	0.738	0.317	0.372	0.36	0.344	0.112
HCC-827	0.639	0.747	0.704	0.732	1.06	1.12	1.12	1.11	1.02	0.399	0.283	0.294	0.344	0.323	0.412	0.401	0.219	0.268
HOP-62	0.898	0.963	1.03	0.688	0.835	0.656	0.559	1.02	0.82	0.62	0.809	0.721	0.587	0.26	0.229	0.22	0.221	0.438
IA-LM	–	–	–	–	0.878	0.841	0.815	0.904	0.705	–	–	–	–	–	–	–	–	–

Cell Line	relative viability (Daporinad + Luminespib; first compound 0.0005 µM)	relative viability (Daporinad + Luminespib; first compound 0.001581 µM)	relative viability (Daporinad + Luminespib; first compound 0.005 µM)	relative viability (Daporinad + Luminespib; first compound 0.01581 µM)	relative viability (R406 + Bortezomib; first compound 0.08 µM)	relative viability (R406 + Bortezomib; first compound 0.253 µM)	relative viability (R406 + Bortezomib; first compound 0.8 µM)	relative viability (R406 + Bortezomib; first compound 2.53 µM)	relative viability (R406 + Bortezomib; first compound 8 µM)	relative viability (Daporinad + Dasatinib; first compound 0.0005 µM)	relative viability (Daporinad + Dasatinib; first compound 0.001581 µM)	relative viability (Daporinad + Dasatinib; first compound 0.005 µM)	relative viability (Daporinad + Dasatinib; first compound 0.01581 µM)	relative viability (R406 + Decitabine; first compound 0.08 µM)	relative viability (R406 + Decitabine; first compound 0.253 µM)	relative viability (R406 + Decitabine; first compound 0.8 µM)	relative viability (R406 + Decitabine; first compound 2.53 µM)	relative viability (R406 + Decitabine; first compound 8 µM)
LC-2-ad	0.99	1.11	1.19	0.795	0.973	1.09	0.987	0.111	0.133	0.622	0.539	0.68	0.765	0.775	0.776	0.797	0.533	0.401
LCLC-97TM1	0.714	0.86	0.768	0.774	0.718	0.659	0.793	0.489	0.207	0.77	0.89	0.865	0.844	0.259	0.27	0.247	0.19	0.274
LCLC-103H	0.988	0.937	1.03	1.06	0.972	1.29	1.08	0.781	0.9	0.546	0.411	0.465	0.502	0.707	0.712	0.744	0.746	0.707
LK-2	0.181	0.213	0.176	0.147	–	–	–	–	–	0.266	0.343	0.33	0.193	0.227	0.469	0.379	0.23	0.21
LOU-NH91	0.331	0.364	0.291	0.382	0.427	0.4	0.469	0.496	0.471	0.544	0.497	0.654	0.745	0.797	0.792	0.779	0.644	0.558
LU99A	0.229	0.227	0.286	0.223	1.07	0.968	1.26	–	0.512	0.539	0.492	0.708	0.547	0.972	0.87	0.888	0.61	0.591
LXF-289	0.668	0.75	0.766	0.657	0.913	0.953	1.01	1.04	0.483	0.178	0.292	0.214	0.289	0.386	0.372	0.406	0.405	0.396
NCI-H358	0.27	0.305	0.599	0.359	–	–	–	–	–	0.135	0.174	0.175	0.158	0.224	0.211	0.222	0.119	0.125
NCI-H522	1.28	1.13	0.971	0.846	–	–	–	–	–	1.01	0.924	0.88	0.843	0.726	0.688	0.762	0.587	0.616
NCI-H1299	–	–	–	–	1	1.02	1.02	1.04	1.04	–	–	–	–	–	–	–	–	–
NCI-H1395	0.774	0.657	0.722	0.782	–	–	–	–	–	0.361	0.464	0.419	0.422	0.685	0.782	0.72	0.572	0.628
NCI-H1563	0.535	0.582	0.493	0.485	0.764	1	0.873	0.523	0.574	0.43	0.423	0.497	0.458	–	–	–	–	–
NCI-H1623	0.618	0.497	0.472	0.555	–	–	–	–	–	0.537	0.463	0.542	0.525	–	–	–	–	–
NCI-H1648	–	–	–	–	–	–	–	–	–	–	–	–	–	0.53	0.527	0.483	0.515	0.36
NCI-H1703	–	–	–	–	0.451	0.32	0.588	0.183	0.167	–	–	–	–	–	–	–	–	–
NCI-H1793	0.163	0.203	0.158	0.217	–	–	–	–	–	0.43	0.397	0.418	0.499	0.528	0.469	0.446	0.409	0.177
NCI-H1944	0.85	0.802	0.829	0.729	–	–	–	–	–	0.228	0.232	0.221	0.237	0.393	0.41	0.358	0.383	0.399
NCI-H2170	0.817	0.722	0.417	0.734	–	–	–	–	–	0.631	0.465	0.616	0.566	0.437	0.448	0.487	0.41	0.505
NCI-H2228	0.17	0.173	0.221	0.163	1.05	1.15	1.32	0.118	0.304	0.543	0.563	0.569	0.554	–	–	–	–	–
NCI-H2342	0.668	0.786	0.707	0.631	–	–	–	–	–	0.316	0.299	0.339	0.295	0.681	0.768	0.759	0.668	0.691
SK-MES-1	0.796	0.839	0.874	0.819	–	–	–	–	–	0.417	0.474	0.315	0.437	0.351	0.384	0.455	0.229	0.181
SW 900	0.19	0.159	0.181	0.17	–	–	–	–	–	0.53	0.574	0.716	0.436	0.486	0.469	0.446	0.555	0.173
